Test results from patent US9913858B2, “Prevention and treatment of toxicosis” (priority 2013, dated 2018).
Read-outs that look alike come from different tables or passages of the source.

Tests used:
[1] = tested on: lolitrem B toxicosis (Rye Grass Staggers); experiment: Gait analysis and time to falling; type: in vivo, sheep; conditions: for time to falling: by context untreated, toxin only
Experimental: Gait analysis was performed on entry to the trial and at designated time points throughout the trial as described above. To achieve this, animals were moved from their individual pens to an external yard in their cohort groups (five animals, one from each treatment). Animals were then encouraged to move at a run, initially in a group and then individually, for a minimum of three minutes per animal whilst their movement was captured on video and gait observations recorded.
Once all animals had been analysed the whole cohort was returned to their individual pens. Gait abnormalities such as stumbling, falling or disorientation were noted, including observation of Type 1 or Type 2 gait changes as described in Combs et, al., (2014). Type I movement disorder is defined as an impaired alternating movement (dysdiadochokinesia), bunny-hopping gait and failure to maintain an appropriate direction. Type 2 movement disorder is defined by increasing rigidity of limbs on forced movement resulting finally in tonic fore and hind limb extension with the animal collapsing into sternal or lateral recumbency (Combs, Rendell et at 2014). Scores between those denoted above were considered as a gradation between the stated clinical observations. Analysis of gait was performed using the following scale in Table 2 and a composite score noted for each animal for each day during the end of trial protocol. A total score out of 30 was determined for each animal. The higher the score the greater the locomotory disturbance. Time to falling was determined post trial by analysis of video material,
Animals that met the entry criteria (severe Type 2 gait abnormality and falling) were submitted to the end-of-trial protocol. […] Animals were subjected to the following tests on days 1 and 3: gait analysis, full neurological examination, venous blood and urine sampling and EMG. Only gait analysis was performed on day 2.

cerebellum = type: in vivo; conditions: sheep cerebellum
Experimental: A full clinical examination was performed prior to euthanasia. At euthanasia, 100 I.U. heparin (Provet Riverina Pty Ltd) was injected into the jugular vein, followed shortly by Lethabarb (20 mL/40 kg LW). Immediately after euthanasia, the ventral articulation of C1 was exposed and cerebrospinal fluid (CSF) collected using a 23 g needle. The head was then removed and subjected to perfusion fixation. Briefly, the carotid arteries were exposed and a small catheter inserted and ligated to secure the perfusion lines. Two liters of 0.1% phosphate buffered saline (PBS) containing 3000 I.U of heparin/L was then slowly perfused via the ligated vessels at a pressure of 90 mm Hg using a Microgon peristaltic Pump (Microgon, Laguna Hills, Calif.). Once complete this was replaced with 4% paraformaldehyde (Sigma-Alrich) in 0.1% PBS and a further two liters allowed to perfuse slowly through the tissues of the head. Once complete, catheters were removed and the whole head placed at 4° C. overnight to complete fixation. Twenty-four hours post perfusion fixation the brain was removed from the skull and placed in 10% formal saline for storage until dissection for processing to wax sections.
Concurrent to fixation perfusion of the head, a routine ovine necropsy was performed and all general tissues taken for routine histopathology. These were heart, lung, oesophagus and trachea, liver, spleen, gut (rumen, abomasum, ileocaecal junction, ileum, caecum and colon), skeletal muscle (gluteal, tricep and diaphram), kidney, pancreas, thymus, ileal and cranial lymph nodes as well as tissues from any gross abnormalities observed at time post necropsy. Other samples: subcutaneous fat, renal fat, gluteal muscle, kidney, faeces and rumen contents were collected and stored at −80° C. for future toxicological analysis. Samples for routine histopathology were fixed in 10% formal saline for a minimum of 48 hours before processing to wax using an automated wax embedder (Shandon Excelsior ES Tissue Processor, Thermo Fisher Scientific).
For histopathology, sections of brain and spinal cord included the following regions: mid cerebellar peduncle; mid and lateral sections of cerebellum; obex, occipital cortex; rostral colliculi; basal ganglia; frontal cortex; temporal cortex; thalamus; hippocampus; internal capsule; cervical, thoracic and lumbar spinal cord and pituitary. Other tissues examined for routine histopathology were kidney; lung; ileum; heart; liver including, gall bladder and bile duct; diaphragm; rumen; and colon. All sections were cut at 5 μm and stained with Haematoxylin and Eosin (H&E) using an automated staining system (Shandon Varistain Gemini ES Slide Stainer, Thermo Fisher Scientific).

[2] = tested on: lolitrem B toxicosis (Rye Grass Staggers); experiment: Electromyography, tremor intensity; type: in vivo, sheep; conditions: lolitrem B intoxicated, EMG
Experimental: EMGs were recorded on entry to the trial, entry to the end of trial (Day 1) and date of post mortem (Day 3) using Powerlab™ (ADInstruments, Castle Hill, Australia) and data recorded using LabChart™ software (ADInstruments, Australia). In preparation, the fleece was shorn from an area over the triceps muscle and along brachiocephalicus muscle of the neck. EMG electrodes were attached to the skin using SuperGlue™. Muscle activity was recorded for a minimum of three minutes with the animal standing at rest with a band pass filter set at 100 Hz. Three minute EMG recordings were taken using Ag—AgCl surface electrodes over the triceps muscle on to entry to the trial, on first day of falling (Day 1) and 48 hours post treatment (Day 3). Data analysis was achieved by application of a Fast-Fourier transformation for statistical comparison. Area under the curve was then calculated at frequencies between 5 and 30 Hz to estimate tremor intensity.

[3] = Group 3: toxin plus acute treatment
[4] = Group 4: toxin plus prophylactic treatment
[5] = Group 5: prophylactic treatment only

Structure (SMILES): CC(C)=C[C@H]1O[C@H]2[C@H]3O[C@@]34[C@H](CC[C@@]3(C)[C@@]4(O)CC[C@H]4Cc5c([nH]c6ccc7c(c56)C[C@@H]5[C@@H](C7=O)C(C)(C)OC5(C)C)[C@@]43C)O[C@@H]2C(C)(C)O1 [lolitrem B]
- composite gait scores over the same time course ([1]; Group 2 sheep, untreated intoxicated, p=0.05): increase
- animals falling, no improvement over the same time period ([1]; positive control sheep, toxic feed, not treated with potassium bromide): 7/7
- time to falling ([1]; printed as Group 3 Day 2): 59.0 ± 23.50 s
- time to falling ([1]; printed as Group 3 Day 3): 51.52 ± 20.23 s
- animals progressing to falling over the same timeframe (22 days) ([1]; sheep, Groups 2 and 3, toxic feed): 5
- Incidence of Purkinje neuron vacuolation (cerebellum; Group 2: toxin only): 5/9
- Incidence of pyknotic cell bodies in granular layer (cerebellum; Group 2: toxin only): 9/9
- Incidence of spheroids, granular layer (cerebellum; Group 2: toxin only): 7/9
- Incidence of spheroids, molecular layer (cerebellum; Group 2: toxin only): 1/9
- Day 1: Day 3 tremor intensity ratio, median ([2]; Group 2 sheep, no treatment): 2.03

Structure (SMILES): [Br-].[K+] [potassium bromide]
- composite gait score, Day 1 (pre-treatment) to Day 2 (24 hours post treatment) ([1]; Group 3 sheep, lolitrem B toxin, oral 300 mg/kg LW potassium bromide, p=0.001): significant reduction
- time to falling in intoxicated animals ([1]; intoxicated sheep, oral 300 mg/kg BW potassium bromide on day of falling): significantly improve
- animals failing to fall when driven to movement for a continuous period of 5 minutes ([1]; intoxicated sheep, oral 300 mg/kg BW potassium bromide on day of falling, 24 and 48 hours after treatment): 8/9
- animals progressing to falling in the designated 22 days of treatment ([1]; sheep, prophylactic potassium bromide plus toxic feed (Group 4)): one
- Incidence of Purkinje neuron vacuolation (cerebellum; [3]): 2/9
- Incidence of pyknotic cell bodies in granular layer (cerebellum; [3]): 5/9
- Incidence of spheroids, granular layer (cerebellum; [3]): 7/9
- Incidence of spheroids, molecular layer (cerebellum; [3]): 0/9
- Incidence of Purkinje neuron vacuolation (cerebellum; [4]): 1/9
- Incidence of pyknotic cell bodies in granular layer (cerebellum; [4]): 9/9
- Incidence of spheroids, granular layer (cerebellum; [4]): 6/9
- Incidence of spheroids, molecular layer (cerebellum; [4]): 3/9
- Incidence of Purkinje neuron vacuolation (cerebellum; [5]): 0/9
- Incidence of pyknotic cell bodies in granular layer (cerebellum; [5]): 2/9
- Incidence of spheroids, granular layer (cerebellum; [5]): 1/9
- Incidence of spheroids, molecular layer (cerebellum; [5]): 3/9
- Day 1: Day 3 tremor intensity ratio ([2]; Group 3 sheep, acute KBr treatment): 0.81
